CCn1cc[n+](C)c1.F[B-](F)(F)F [1-ethyl-3-methylimidazolium tetrafluoroborate]
surface tension liquid-gas [mN/m]
Conditions	Wilhelmy plate method	du Nouy ring method
288.05 K	–	54.61
288.06 K	54.61	–
292.92 K	54.28	–
292.93 K	–	54.55
298.1 K	53.97	–
298.12 K	–	54.01
303.12 K	53.65	–
303.13 K	–	53.96
308.27 K	53.34	53.77
313.33 K	52.98	–
313.43 K	–	53.05
318.3 K	52.7	–
318.35 K	–	52.86
323.5 K	52.39	–
323.53 K	–	52.54
328.4 K	52.05	–
328.54 K	–	52.18
333.32 K	51.74	–
333.48 K	–	51.87
338.38 K	–	51.48
338.39 K	51.4	–
343.18 K	51.11	–
343.32 K	–	51.11
348.7 K	50.76	–
348.78 K	–	50.74
355.91 K	–	50.26
355.99 K	50.27	–

CCCCCCn1cc[n+](C)c1.F[B-](F)(F)F [1-hexyl-3-methylimidazolium tetrafluoroborate]
surface tension liquid-gas [mN/m]
Conditions	Wilhelmy plate method	du Nouy ring method
268.58 K	39.81	39.79
273.34 K	39.52	39.54
277.72 K	39.29	–
277.76 K	–	39.32
282.51 K	39.04	–
282.71 K	–	39.21
288.13 K	38.71	38.75
292.87 K	38.47	–
292.93 K	–	38.49
298.07 K	38.2	38.21
303.15 K	37.88	–
303.19 K	–	37.85
308.22 K	–	37.66
308.23 K	37.64	–
313.35 K	37.32	–
313.48 K	–	37.33
318.39 K	–	37.08
318.48 K	37.08	–
323.32 K	–	36.83
323.34 K	36.81	–
328.17 K	36.53	–
328.2 K	–	36.54
333.22 K	36.25	–
333.24 K	–	36.21
337.92 K	36.01	–
337.97 K	–	36
343.79 K	35.68	35.7
348.5 K	35.44	–
348.54 K	–	35.39
356.17 K	34.99	–
356.18 K	–	35

From the NIST ThermoML archive (doi:10.1016/j.fluid.2011.01.027)
